Melting point data for 30 molecules are collected here from patent publication US6387912B1, “Utilization of pyrimidine derivatives for preventing and treating cerebral ischaemia” (BASF Aktiengesellschaft, priority 1999, dated 2002).

As a reminder, the melting point is the temperature, or range, at which the solid turns liquid.

Where a name gives a salt, the structure may show the parent alone.

`CN1CCc2c(sc3ncn(CCCN4CCN(c5ncccn5)CC4)c(=O)c23)C1` [Example 64, 3,4,5,6,7,8-Hexahydro-7-methyl-3-[3-(4-pyrimidin-2-yl-piperazin-1-yl)propyl]pyrido[4′,3′:4,5]thieno[2,3-d]-pyrimidin-4-one] returned a melting point of 161 to 163 °C.
Then `CCN1CCc2sc3ncn(CCN4CCCN(c5cccc6ccccc56)CC4)c(=O)c3c2C1` (as salt: hydrochloride) [Example 17, 3,4,5,6,7,8-Hexahydro-6-ethyl-3-[2-(4-naphth-1-ylhexahydro-1,4-diazepin-1-yl)ethyl]pyrido[3′,4′:4,5]thieno[2,3-d]-pyrimidin-4-one], with 276 to 280 °C; and `CN1CCc2c(sc3ncn(CCN4CCN(c5ccccc5)CC4)c(=O)c23)C1` [Example 145, 3,4,5,6,7,8-Hexahydro-7-methyl-3-[2-(4-phenylpiperazin-1-yl)ethyl]pyrido[4′,3′:4,5]thieno[2,3-d]pyrimidin-4-one], with 121 to 123 °C.
Consider `COc1ccccc1N1CCN(CCn2c(O)nc3sc4c(c3c2=O)CCN(C(C)=O)C4)CC1` [Example 121, 3,4,5,6,7,8-Hexahydro-7-acetyl-2-hydroxy-3-[2-(4-(2-methoxyphenyl)piperazin-1-yl)ethyl]pyrido[4′,3′:4,5]thieno-[2,3-d]pyrimidin-4-one], for which the melting point was in the range of 135 to 137 °C.
In turn, `Cc1c(C(=O)N(C)C)sc2ncn(CCN3CCN(c4ncnc5ccccc45)CC3)c(=O)c12` (as salt: hydrochloride) [Example 29, 3,4-Dihydro-5-methyl-6-dimethylcarbamoyl-3-[2-(4-quinazolin-4-ylpiperazin-1-yl)ethyl]thieno[2,3-d]pyrimidin-4-one] showed a melting point of 295 to 300 °C.
`Cc1c(C(=O)N(C)C)sc2ncn(CCN3CCN(c4cccc(C(F)(F)F)c4)CC3)c(=O)c12` [Example 7, 3,4-Dihydro-5-methyl-6-dimethylcarbamoyl-3-[2-(4-(3-trifluoromethylphenyl)piperazin-1-yl)ethyl]thieno[2,3-d]-pyrimidin-4-one] registered a melting point of 146 °C.
As for `CN1CCc2c(sc3ncn(CCN4CCN(c5ncccn5)CC4)c(=O)c23)C1` [Example 27, 3,4,5,6,7,8-Hexahydro-7-methyl-3-[2-(4-pyrimidin-2-ylpiperazin-1-yl)ethyl]pyrido[4′,3′:4,5]thieno[2,3-d]-pyrimidin-4-one], the figure is 146 to 148 °C; as for `CCN1CCc2sc3ncn(CCN4CCN(c5cccc6c5CCCC6)CC4)c(=O)c3c2C1` (as salt: hydrochloride) [Example 12, 3,4,5,6,7,8-Hexahydro-6-ethyl-3-[2-(4-tetralin-5-yl-piperazin-1-yl)ethyl]pyrido[3′,4′:4,5]thieno[2,3-d]pyrimidin-4-one], 287 °C.
`CCOC(=O)N1Cc2sc3ncn(CCN4CCN(c5ncccn5)CC4)c(=O)c3c2C1` [Example 11, 3,4,5,7-Tetrahydro-6-carboethoxy-3-[2-(4-pyrimidin-2-yl-piperazin-1-yl)ethyl]pyrrolo[3′,4′:4,5]thieno[2,3-d]-pyrimidin-4-one]: the melting point was found to be 166 °C.
Molecule `COc1ccccc1N1CCN(CCn2cnc3sc4c(c3c2=O)CCN(C(C)=O)C4)CC1` [Example 116, 3,4,5,6,7,8-Hexahydro-7-acetyl-3-[2-(4-(2-methoxyphenyl)-piperazin-1-yl)ethyl]pyrido[4′,3′:4,5]thieno[2,3-d]-pyrimidin-4-one] came in with a melting point of 170 to 172 °C.
With `CN1CCc2c(sc3ncn(CCN4CCN(c5nccc(C(F)(F)F)n5)CC4)c(=O)c23)C1` [Example 127, 3,4,5,6,7,8-Hexahydro-7-methyl-3-[2-(4-(4-trifluoromethyl-pyrimidin-2-yl)piperazin-1-yl)ethyl]pyrido[4′,3′:4,5]-thieno[2,3-d]pyrimidin-4-one], the melting point was in the range of 291 to 292 °C.
Then `CN1CCc2c(sc3ncn(CCCN4CCN(c5ncccn5)CC4)c(=N)c23)C1` [Example 36, 3,4,5,6,7,8-Hexahydro-7-methyl-3-[3-(4-pyrimidin-2-yl-piperazin-1-yl)propyl]pyrido[4′,3′:4,5]thieno[2,3-d]-pyrimidin-4-imine], with 161 to 163 °C.
`CN1CCc2c(sc3ncn(CCN4CCN(c5ccccc5C#N)CC4)c(=O)c23)C1` [Example 68, 3,4,5,6,7,8-Hexahydro-7-methyl-3-[2-(4-(2-cyanophenyl)-piperazin-1-yl)ethyl]pyrido[4′,3′:4,5]thieno[2,3-d]-pyrimidin-4-one] showed a melting point of 162 to 164 °C.
Molecule `COc1ccccc1N1CCN(CCCn2cnc3sc4c(c3c2=O)CCN(Cc2ccccc2)C4)CC1` [Example 18, 3,4,5,6,7,8-Hexahydro-7-benzyl-3-[3-(4-(2-methoxyphenyl)-piperazin-1-yl)propyl]pyrido[4′,3′:4,5]thieno[2,3-d]-pyrimidin-4-one] came in with a melting point of 66 to 67 °C.
`COc1ccccc1N1CCN(CCn2c(C)nc3sc4c(c3c2=O)CCN(C)C4)CC1` [Example 120, 3,4,5,6,7,8-Hexahydro-2,7-dimethyl-3-[2-(4-(2-methoxyphenyl)-piperazin-1-yl)ethyl]pyrido[4′,3′:4,5]thieno-[2,3-d]pyrimidin-4-one]: the melting point was in the range of 176 to 178 °C.
As for `Cc1ccnc(N2CCN(CCn3cnc4sc5c(c4c3=O)CCN(C)C5)CC2)n1` [Example 153, 3,4,5,6,7,8-Hexahydro-7-methyl-3-[2-(4-(4-methylpyrimidin-2-yl)piperazin-1-yl)ethyl]pyrido[4′,3′:4,5]thieno[2,3-d]-pyrimidin-4-one], the figure is 136 to 138 °C.
Turning to `Cc1cccc(N2CCN(CCn3cnc4sc5c(c4c3=O)CCN(C)C5)CC2)c1C` [Example 44, 3,4,5,6,7,8-Hexahydro-7-methyl-3-[2-(4-(2,3-dimethylphenyl)-piperazin-1-yl)ethyl]pyrido[4′,3′:4,5]thieno[2,3-d]pyrimidin-4-one], the melting point was in the range of 163 to 167 °C.
Then `Cc1cccc(N2CCN(CCn3cnc4sc5c(c4c3=O)CCN(C)C5)CC2)n1` [Example 126, 3,4,5,6,7,8-Hexahydro-7-methyl-3-[2-(4-(6-methylpyridin-2-yl)piperazin-1-yl)ethyl]pyrido[4′,3′:4,5]thieno[2,3-d]-pyrimidin-4-one], with 138 to 140 °C.
For the molecule `CN1CCc2c(sc3ncn(CCCN4CCN(c5ccccc5O)CC4)c(=N)c23)C1` [Example 29, 3,4,5,6,7,8-Hexahydro-7-methyl-3-[3-(4-(2-hydroxyphenyl)-piperazin-1-yl)propyl]pyrido[4′,3′:4,5]thieno[2,3-d]-pyrimidin-4-imine], the melting point is 164 to 166 °C.
The molecule `CN1CCc2c(sc3ncn(CCN4CCN(c5ccc(F)c6ccccc56)CC4)c(=O)c23)C1` [Example 140, 3,4,5,6,7,8-Hexahydro-7-methyl-3-[2-(4-(4-fluoronaphth-1-yl)-piperazin-1-yl)ethyl]pyrido[4′,3′:4,5]thieno[2,3-d]-pyrimidin-4-one] gave a melting point of 157 to 158 °C.
With `Cc1ccc2ccccc2c1N1CCN(CCn2cnc3sc(C(=O)N(C)C)c(C)c3c2=O)CC1` [Example 4, 3,4-Dihydro-5-methyl-6-dimethylcarbamoyl-3-[2-(4-(2-methyl-1-naphthyl)piperazin-1-yl)ethyl]-thieno[2,3-d]pyrimidin-4-one], the melting point fell in the range of 178 to 180 °C.
`Cc1ccc(C)c(N2CCN(CCn3cnc4sc(C(=O)N(C)C)c(C)c4c3=O)CC2)c1` [Example 31, 3,4-Dihydro-5-methyl-6-dimethylcarbamoyl-3-[2-(4-(2,5-dimethylphenyl)piperazin-1-yl)ethyl]thieno-[2,3-d]pyrimidin-4-one] yielded a melting point of 90 to 91 °C.
Regarding `CCOC(=O)N1Cc2sc3ncn(CCN4CCN(c5ccccc5C)CC4)c(=O)c3c2C1` [Example 38, 3,4,5,7-Tetrahydro-6-carboethoxy-3-[2-(4-(2-methylphenyl)-piperazin-1-yl)ethyl]pyrrolo[3′,4′:4,5]thieno-[2,3-d]pyrimidin-4-one], the melting point stood at 152 °C.
`O=c1c2c3c(sc2ncn1CCN1CCN(c2ccccc2)CC1)CN(Cc1ccccc1)CC3` [Example 19, 3,4,5,6,7,8-Hexahydro-7-benzyl-3-[2-(4-phenylpiperazin-1-yl)-ethyl]pyrido[4′,3′:4,5]thieno[2,3-d]pyrimidin-4-one] had a melting point of 70 to 71 °C.
On to `CN1CCc2c(sc3ncn(CCN4CCN(c5cc(Cl)cc(Cl)c5)CC4)c(=O)c23)C1` [Example 46, 3,4,5,6,7,8-Hexahydro-7-methyl-3-[2-(4-(3,5-dichlorophenyl)-piperazin-1-yl)ethyl]pyrido[4′,3′:4,5]thieno[2,3-d]pyrimidin-4-one], for which the melting point is 97 to 100 °C.
The molecule `CN1CCc2c(sc3ncn(CCN4CCN(c5cc(C(F)(F)F)ccn5)CC4)c(=O)c23)C1` [Example 141, 3,4,5,6,7,8-Hexahydro-7-methyl-3-[2-(4-(4-trifluoromethylpyridin-2-yl)piperazin-1-yl)ethyl]pyrido[4′,3′:4,5]thieno-[2,3-d]pyrimidin-4-one] displayed a melting point of 101 to 102 °C.
With `CN1CCc2c(sc3ncn(CCN4CCN(c5ncccn5)CC4)c(=N)c23)C1` (as salt: tartrate) [Example 20, 3,4,5,6,7,8-Hexahydro-7-methyl-3-[2-(4-pyrimidin-2-yl-piperazin-1-yl)ethyl]pyrido[4′,3′:4,5]thieno[2,3-d]-pyrimidin-4-imine], the melting point was 112 to 114 °C (dec.).
As to `COc1ccccc1N1CCN(CCCn2cnc3sc4c(c3c2=N)CCN(C)C4)CC1` [Example 15, 3,4,5,6,7,8-Hexahydro-7-methyl-3-[3-(4-(2-methoxyphenyl)-piperazin-1-yl)propyl]pyrido[4′,3′:4,5]thieno[2,3-d]pyrimidin-4-imine], the melting point was 112 to 114 °C.
As for `N=c1c2c3c(sc2ncn1CCN1CCN(c2ccccc2)CC1)CN(Cc1ccccc1)CC3` [Example 17, 3,4,5,6,7,8-Hexahydro-7-benzyl-3-[2-(4-phenylpiperazin-1-yl)-ethyl]pyrido[4′,3′:4,5]thieno[2,3-d]pyrimidin-4-imine], the figure is 168 to 170 °C.
`COc1ccccc1N1CCN(CCn2cnc3sc4c(c3c2=O)CCNC4)CC1` [Example 115, 3,4,5,6,7,8-Hexahydro-3-[2-(4-(2-methoxyphenyl)-piperazin-1-yl)ethyl]pyrido[4′,3′:4,5]thieno[2,3-d]pyrimidin-4-one] had a melting point of 168 to 170 °C.
